The results in this text go back to EP3755703B1, “N-(PHENYL)-2-(PHENYL)PYRIMIDINE-4-CARBOXAMIDE DERIVATIVES AND RELATED COMPOUNDS AS HPK1 INHIBITORS FOR TREATING CANCER” (Incyte Corporation, priority 2018, dated 2019).

One may read the Ki as the dissociation constant of the complex between target and ligand, obtained from inhibition or displacement. Read a low Ki as a stronger hold on the target.

The target in this assay is T1, HPK1 (Homo sapiens, UniProt Q92918).
T1 construct: purchased SignalChem M23-11G
T1 sequence (Q92918 1-346 limits assumed): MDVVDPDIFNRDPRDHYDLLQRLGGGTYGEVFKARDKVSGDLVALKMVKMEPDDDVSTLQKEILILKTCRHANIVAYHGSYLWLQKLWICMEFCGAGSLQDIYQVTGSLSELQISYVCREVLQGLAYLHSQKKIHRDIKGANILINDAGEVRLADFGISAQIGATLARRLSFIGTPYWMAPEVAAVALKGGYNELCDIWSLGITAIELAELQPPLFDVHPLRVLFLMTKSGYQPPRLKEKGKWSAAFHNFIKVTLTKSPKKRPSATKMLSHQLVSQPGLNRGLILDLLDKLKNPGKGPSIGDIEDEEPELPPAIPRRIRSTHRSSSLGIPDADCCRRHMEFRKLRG
Nature of the assay: HPK1 Kinase Binding Assay. The settings on record: LanthaScreen tracer 222, one hour incubation at 25 °C. The procedure: A stock solution of 1 mM test compound was prepared in DMSO. The compound plate was prepared by 3-fold and 11-point serial dilutions. 0.1 µL of the compound in DMSO was transferred from the compound plate to the white 384 well polystyrene plates. The assay buffer contained 50 mM HEPES, pH 7.5, 0.01% Tween-20, 5 mM MgCl2, 0.01% BSA, and 5 mM DTT. 5 µL of 4 nM active HPK1 (SignalChem M23-11G) prepared in the buffer was added to the plate. The enzyme concentration given was based on the given stock concentration reported by the vender. […] After one hour incubation at 25 °C, the plates were read on a PHERAstar FS plate reader (BMG Labtech). Ki values were determined.
A general note: TR-FRET usually uses a lanthanide donor and a delayed reading to cut background.
Take `COC[C@@H]1CCN1c1ccc(NC(=O)c2ccnc(-c3c(F)cccc3OC)n2)c(N2C[C@@H]3C[C@H]2CN3)c1` [Example 39, N-(2-((1S,4S)-2,5-Diazabicyclo[2.2.1]heptan-2-yl)-4-((S)-2-(methoxymethyl)azetidin-1-yl)phenyl)-2-(2-fluoro-6-methoxyphenyl)pyrimidine-4-carboxamide]: the Ki is < 100 nM. On to `COc1cccc(F)c1-c1nccc(C(=O)Nc2ccc(-c3ccncc3C#N)c(F)c2N2C[C@@H]3C[C@H]2CN3)n1` [Example 40, N-(2-((1S,4S)-2,5-Diazabicyclo[2.2.1]heptan-2-yl)-4-(3-cyanopyridin-4-yl)-3-fluorophenyl)-2-(2-fluoro-6-methoxyphenyl)pyrimidine-4-carboxamide], for which the Ki is < 100 nM.

Consider `COc1cccc(F)c1-c1nccc(C(=O)Nc2ccc(-c3ccncc3C#N)cc2N2C[C@@H](N)C[C@H]2CO)n1` [Example 41, N-(2-((2S,4S)-4-Amino-2-(hydroxymethyl)pyrrolidin-1-yl)-4-(3-cyanopyridin-4-yl)phenyl)-2-(2-fluoro-6-methoxyphenyl)pyrimidine-4-carboxamide], for which the Ki was < 100 nM. The result for `COc1cnccc1-c1ccc(NC(=O)c2ccnc(-c3c(F)cccc3OC)n2)c(N2C[C@@H](N)C[C@H]2CO)c1` [Example 44, N-(2-((2S,4S)-4-Amino-2-(hydroxymethyl)pyrrolidin-1-yl)-4-(3-methoxypyridin-4-yl)phenyl)-2-(2-fluoro-6-methoxyphenyl)pyrimidine-4-carboxamide] reads < 100 nM; that for `COc1cccc(F)c1-c1nccc(C(=O)Nc2ccc(-c3c(F)cccc3C#N)cc2N2C[C@@H](N)C[C@H]2CO)n1` [Example 45, N-(3-((2S,4S)-4-Amino-2-(hydroxymethyl)pyrrolidin-1-yl)-2'-cyano-6'-fluorobiphenyl-4-yl)-2-(2-fluoro-6-methoxyphenyl)pyrimidine-4-carboxamide], < 100 nM. The same measure for `COc1cccc(F)c1-c1nccc(C(=O)Nc2ccc(C(C)C)cc2N2C[C@@H](N)C[C@H]2CO)n1` [Example 48, N-(2-((2S,4S)-4-Amino-2-(hydroxymethyl)pyrrolidin-1-yl)-4-isopropylphenyl)-2-(2-fluoro-6-methoxyphenyl)pyrimidine-4-carb oxamide]: < 100 nM; for `COc1cccc(F)c1-c1nccc(C(=O)Nc2ccc(-c3ccncc3C#N)cc2N2C[C@@H](O)C[C@H]2CO)n1` [Example 49, N-(4-(3-Cyanopyridin-4-yl)-2-((2S,4S)-4-hydroxy-2-(hydroxymethyl)pyrrolidin-1-yl)phenyl)-2-(2-fluoro-6-methoxyphenyl)pyrimidine-4-carboxamide]: < 100 nM.

As to `COc1cccc(F)c1-c1nccc(C(=O)Nc2ccc(-c3cnccc3C#N)cc2N2C[C@@H](C)NC[C@H]2CO)n1` [Example 50, N-(4-(4-Cyanopyridin-3-yl)-2-((2S,5R)-2-(hydroxymethyl)-5-methylpiperazin-1-yl)phenyl)-2-(2-fluoro-6-methoxyphenyl)pyrimidine-4-carboxamide], the Ki was < 100 nM. With `COc1cccc(F)c1-c1nccc(C(=O)Nc2ccc(-c3cnccc3C#N)cc2N2C[C@H](C)NC[C@H]2CO)n1` [Example 51, N-(4-(4-Cyanopyridin-3-yl)-2-((2S,5S)-2-(hydroxymethyl)-5-methylpiperazin-1-yl)phenyl)-2-(2-fluoro-6-methoxyphenyl)pyrimidine-4-carboxamide], the Ki is < 100 nM. Take `COc1cccc(F)c1-c1nccc(C(=O)Nc2ccc(-c3cnccc3C#N)cc2N2CC3(CC3)NC[C@H]2CO)n1` [Example 52, (S)-N-(4-(4-Cyanopyridin-3-yl)-2-(6-(hydroxymethyl)-4,7-diazaspiro[2.5]octan-7-yl)phenyl)-2-(2-fluoro-6-methoxyphenyl)pyrimidine-4-carboxamide]: the inhibitory constant (Ki) was < 100 nM. Regarding `COc1cccc(F)c1-c1nccc(C(=O)Nc2ccc(-c3cnccc3C#N)cc2N2C[C@@H](N)C[C@H]2C2(O)CC2)n1` [Example 53, N-(2-((2S,4S)-4-Amino-2-(1-hydroxycyclopropyl)pyrrolidin-1-yl)-4-(4-cyanopyridin-3-yl)phenyl)-2-(2-fluoro-6-methoxyphenyl)pyrimidine-4-carboxamide], the Ki is < 100 nM. As for `COc1cccc(F)c1-c1nccc(C(=O)Nc2ccc(-c3cnccc3C#N)cc2N2C[C@@H](N)C[C@H]2C(C)(C)O)n1` [Example 54, N-(2-((2S,4S)-4-Amino-2-(2-hydroxypropan-2-yl)pyrrolidin-1-yl)-4-(4-cyanopyridin-3-yl)phenyl)-2-(2-fluoro-6-methoxyphenyl)pyrimidine-4-carboxamide], the Ki is < 100 nM. Consider `COc1cccc(F)c1-c1nccc(C(=O)Nc2ccc(-c3cnccc3C#N)cc2N2[C@@H]3CN[C@@H](C3)[C@@H]2CO)n1` [Example 56, N-(4-(4-Cyanopyridin-3-yl)-2-((1S,3R,4S)-3-(hydroxymethyl)-2,5-diazabicyclo [2.2.1]heptan-2-yl)phenyl)-2-(2-fluoro-6-methoxyphenyl)pyrimidine-4-carboxamide], for which the Ki is < 100 nM. The result for `COc1cccc(F)c1-c1nccc(C(=O)Nc2ccc(-c3cnccc3C#N)cc2N2C[C@@H]3C[C@@]2(CO)CN3)n1` [Example 57, N-(4-(4-Cyanopyridin-3-yl)-2-((1S,4S)-1-(hydroxymethyl)-2,5-diazabicyclo[2.2.1]heptan-2-yl)phenyl)-2-(2-fluoro-6-methoxyphenyl)pyrimidine-4-carboxamide] reads < 100 nM. The same measure for `COc1cccc(F)c1-c1nccc(C(=O)Nc2ccc(-c3cnccc3C#N)cc2N2CC[C@H](N)C[C@@H]2C)n1` [Example 58, N-(2-((2S,4S)-4-Amino-2-methylpiperidin-1-yl)-4-(4-cyanopyridin-3-yl)phenyl)-2-(2-fluoro-6-methoxyphenyl)pyrimidine-4-carboxamide]: < 100 nM; for `COc1cccc(F)c1-c1cccc(C(=O)Nc2ccc(-c3cnccc3C#N)cc2N2C[C@@H](N)C[C@H]2CO)n1` [Example 59, N-(2-((2S,4S)-4-Amino-2-(hydroxymethyl)pyrrolidin-1-yl)-4-(4-cyanopyridin-3-yl)phenyl)-6-(2-fluoro-6-methoxyphenyl)picolinamide]: < 100 nM. The same measure for `COc1cccc(F)c1-c1nc(C(=O)Nc2ccc(-c3cnccc3C#N)cc2N2C[C@@H](N)C[C@H]2CO)ccc1C#N` [Example 60, N-(2-((2S,4S)-4-Amino-2-(hydroxymethyl)pyrrolidin-1-yl)-4-(4-cyanopyridin-3-yl)phenyl)-5-cyano-6-(2-fluoro-6-methoxyphenyl)picolinamide]: < 100 nM.

`COc1ccc(C(=O)Nc2ccc(-c3cnccc3C#N)cc2N2C[C@@H](N)C[C@H]2CO)nc1-c1c(F)cccc1OC` [Example 61, N-(2-((2S,4S)-4-Amino-2-(hydroxymethyl)pyrrolidin-1-yl)-4-(4-cyanopyridin-3-yl)phenyl)-6-(2-fluoro-6-methoxyphenyl)-5-methoxypicolinamide] showed a Ki of 100 to 500 nM.

For `N#Cc1ccncc1-c1ccc(NC(=O)c2ccnc(-c3c(F)cccc3F)n2)c(N2C[C@@H](N)C[C@H]2CO)c1` [Example 62, N-(2-((2S,4S)-4-Amino-2-(hydroxymethyl)pyrrolidin-1-yl)-4-(4-cyanopyridin-3-yl)phenyl)-2-(2,6-difluorophenyl)pyrimidine-4-carboxamide], the Ki is < 100 nM. The same measure for `Cc1cccc(F)c1-c1nccc(C(=O)Nc2ccc(-c3cnccc3C#N)cc2N2C[C@@H](N)C[C@H]2CO)n1` [Example 63, N-(2-((2S,4S)-4-Amino-2-(hydroxymethyl)pyrrolidin-1-yl)-4-(4-cyanopyridin-3-yl)phenyl)-2-(2-fluoro-6-methylphenyl)pyrimidine-4-carboxamide]: < 100 nM; for `N#Cc1ccncc1-c1ccc(NC(=O)c2ccnc(-c3c(F)cccc3Cl)n2)c(N2C[C@@H](N)C[C@H]2CO)c1` [Example 64, N-(2-((2S,4S)-4-Amino-2-(hydroxymethyl)pyrrolidin-1-yl)-4-(4-cyanopyridin-3-yl)phenyl)-2-(2-chloro-6-fluorophenyl)pyrimidine-4-carboxamide]: < 100 nM; for `COc1cccc(F)c1-c1nccc(C(=O)Nc2ccc(-c3c(C)nn(C)c3C)nc2N2C[C@@H](N)C[C@H]2CO)n1` [Example 65, N-(2-((2S,4S)-4-Amino-2-(hydroxymethyl)pyrrolidin-1-yl)-6-(1,3,5-trimethyl-1H-pyrazol-4-yl)pyridin-3-yl)-2-(2-fluoro-6-methoxyphenyl)pyrimidine-4-carboxamide]: < 100 nM. The result for `N[C@H]1C[C@@H](CO)N(c2ccc(F)cc2NC(=O)c2ccnc(-c3c(F)cccc3F)n2)C1` [Example 66, N-(2-((2S,4S)-4-Amino-2-(hydroxymethyl)pyrrolidin-1-yl)-5-fluorophenyl)-2-(2,6-difluorophenyl)pyrimidine-4-carboxamide] reads < 100 nM.

As for `COc1ccc(C#N)c(F)c1-c1nccc(C(=O)Nc2cc(F)ccc2N2C[C@@H](N)C[C@H]2CO)n1` [Example 67, N-(2-((2S,4S)-4-Amino-2-(hydroxymethyl)pyrrolidin-1-yl)-5-fluorophenyl)-2-(3-cyano-2-fluoro-6-methoxyphenyl)pyrimidine-4-carboxamide], the Ki is < 100 nM.
